Results: patent publication US20120077858A1, “COMPOUNDS ACT AT MULTIPLE PROSTAGLANDIN RECEPTORS GIVING A GENERAL ANTI-INFLAMMATORY RESPONSE” (ALLERGAN, INC., priority 2010, published 2012)
Values joined by “and” are separate entries in the source; they are usually repeats but may differ in a detail not shown here. Equal entries are not always repeated. Where two headings read alike, the source gives them in different places.

Key:
Type in all cases: cell-based
[1] = target: T1, human prostanoid FP receptor (Homo sapiens, UniProt P43088); assay: FLIPR Ca2+ signaling antagonist assay, FP receptor stable cell line; settings: HEK-293 EBNA stable cells, vs standard agonist 17-phenyl-PGF2α
T1 construct: expressed in transfected cells
T1 sequence (P43088 whole entry): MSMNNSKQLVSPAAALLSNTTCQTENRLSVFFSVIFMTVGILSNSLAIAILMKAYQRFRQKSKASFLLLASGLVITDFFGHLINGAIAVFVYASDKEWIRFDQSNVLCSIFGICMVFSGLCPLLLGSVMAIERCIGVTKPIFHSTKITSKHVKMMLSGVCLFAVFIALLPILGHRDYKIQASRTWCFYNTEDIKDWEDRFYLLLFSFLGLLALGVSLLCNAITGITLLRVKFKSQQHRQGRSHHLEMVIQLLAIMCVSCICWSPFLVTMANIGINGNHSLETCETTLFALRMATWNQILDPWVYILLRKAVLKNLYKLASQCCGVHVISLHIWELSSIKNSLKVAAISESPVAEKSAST
Description: (§1) The above compounds were tested for PG antagonist activity as follows using human recombinant prostanoid receptor (DP1, EP1-4, FP, IP and TP) stable cell lines:
(§2) In order to measure the response of Gs and Gi coupled prostanoid receptors as a Ca^2+ signal, chimeric G protein cDNAs were used. Stable cell lines over-expressing human prostanoid DP1, EP1-4, FP, IP, and TP receptors were established as follows:
(§3) Briefly, human prostanoid DP1, EP2, and EP4 receptor cDNAs were co-transfected with chimeric Gqs cDNA containing a haemagglutanin (HA) epitope; human prostanoid EP3 receptors were co-transfected with chimeric Gqi-HA; human EP1, FP, IP, and TP receptor cDNAs were expressed with no exogenous G-proteins. Gqs and Gqi chimeric cDNAs (Molecular Devices, Sunnyvale, Calif., U.S.A.), as well as cDNAs of prostanoid receptors, were cloned into a pCEP4 vector with a hygromycin B selection marker. Transfection into HEK-293 EBNA (Epstein-Barr virus nuclear antigen) cells was achieved by the FuGENE 6 transfection Reagent (Roche Applied Science, Indianapolis, Ind., USA). Stable transfectants were selected according to hygromycin resistance. Because Gqs and Gqi contained an HA epitope, G-protein expression was detected by Western blotting analysis using anti-mouse HA monoclonal antibody and horseradish peroxidase (HRP)-conjugated secondary antibody, while functional expression of prostanoid receptors was detected by FLIPR screening. These stable cell lines were validated using previously published antagonists at 10 μM against serial dilutions of standard agonists by FLIPR functional assays for Ca^2+ Signaling (as described below).
(§4) Ca^2+ signaling studies were performed using a FLIPR TETRA system (Molecular Devices, Sunnyvale, Calif., USA) in the 384-format. This is a high-throughput instrument for cell-based assays to monitor Ca^2+ signaling associated with GPCRs and ion channels. Cells were seeded at a density of 5×10^4 cells/well in BioCoat poly-D-lysine coated, black wall, clear bottom 384-well plates (BD Biosciences, Franklin lakes, NJ, USA) and allowed to attach overnight in an incubator at 37° C. […]
(§5) After 4.5 minutes, a 7-point serial dilution of the standard agonist for the corresponding receptor, in a 25 μl volume was injected at the final concentrations from 10^−11M to 10^−5M 10-fold serial dilution increments for cells expressing human recombinant DP1, EP1, EP2, EP3, EP4, FP, and IP receptors. […] Cells were excited with LED (light emitting diode) excitation at 470-495 nm and emission was measured through an emission filter at 515-575 nm. Assay plates were read for 3.5 minutes using the FLIPR^TETRA. The peak increase in fluorescence intensity was recorded for each well. […]

[2] = target: T2, human prostanoid EP1 receptor (Homo sapiens, UniProt P34995); assay: FLIPR Ca2+ signaling antagonist assay, EP1 receptor stable cell line; settings: vs standard agonist PGE2
T2 construct: expressed in transfected cells
T2 sequence (P34995 1-402): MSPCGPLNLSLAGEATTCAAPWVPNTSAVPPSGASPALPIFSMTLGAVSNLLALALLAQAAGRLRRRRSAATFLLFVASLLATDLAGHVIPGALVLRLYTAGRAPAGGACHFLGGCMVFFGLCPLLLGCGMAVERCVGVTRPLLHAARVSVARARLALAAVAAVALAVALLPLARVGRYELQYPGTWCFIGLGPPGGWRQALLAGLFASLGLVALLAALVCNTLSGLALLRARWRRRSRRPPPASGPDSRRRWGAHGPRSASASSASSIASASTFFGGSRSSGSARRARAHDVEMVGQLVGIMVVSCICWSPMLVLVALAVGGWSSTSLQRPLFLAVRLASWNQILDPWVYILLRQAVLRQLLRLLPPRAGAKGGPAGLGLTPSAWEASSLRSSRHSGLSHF
Description: as §1, §2, §3, §4, §5

[3] = target: T3, human prostanoid EP2 receptor (Homo sapiens, UniProt P43116); assay: FLIPR Ca2+ signaling antagonist assay, EP2 receptor stable cell line; settings: chimeric Gqs, vs standard agonist PGE2
T3 construct: expressed in transfected cells
T3 sequence (P43116 whole entry): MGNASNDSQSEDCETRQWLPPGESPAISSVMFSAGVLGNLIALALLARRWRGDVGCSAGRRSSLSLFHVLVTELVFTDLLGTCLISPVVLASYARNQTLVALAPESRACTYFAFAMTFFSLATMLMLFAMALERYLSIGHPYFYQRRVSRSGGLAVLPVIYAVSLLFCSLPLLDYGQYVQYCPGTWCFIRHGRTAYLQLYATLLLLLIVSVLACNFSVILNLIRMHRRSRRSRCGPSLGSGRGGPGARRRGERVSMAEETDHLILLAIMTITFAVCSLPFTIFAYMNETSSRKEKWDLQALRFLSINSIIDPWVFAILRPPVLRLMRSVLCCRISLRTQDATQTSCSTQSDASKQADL
Description: as §1, §2, §3, §4, §5

[4] = target: T4, human prostanoid EP3 receptor (Homo sapiens, UniProt P43115); assay: FLIPR Ca2+ signaling antagonist assay, EP3 receptor stable cell line; settings: chimeric Gqi, vs standard agonist PGE2
T4 construct: expressed in transfected cells
T4 sequence (P43115 1-390): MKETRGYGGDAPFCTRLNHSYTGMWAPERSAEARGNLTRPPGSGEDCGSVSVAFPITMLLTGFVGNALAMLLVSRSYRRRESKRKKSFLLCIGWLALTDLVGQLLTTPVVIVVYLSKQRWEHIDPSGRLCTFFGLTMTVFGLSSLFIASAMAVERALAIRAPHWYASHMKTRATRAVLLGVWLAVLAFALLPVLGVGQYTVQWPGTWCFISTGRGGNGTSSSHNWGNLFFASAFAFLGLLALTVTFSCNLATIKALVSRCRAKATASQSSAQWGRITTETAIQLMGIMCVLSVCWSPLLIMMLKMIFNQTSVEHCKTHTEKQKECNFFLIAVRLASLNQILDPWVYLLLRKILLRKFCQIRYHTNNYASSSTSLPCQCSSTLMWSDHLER
Description: as §1, §2, §3, §4, §5

[5] = target: T5, human prostanoid EP4 receptor (Homo sapiens, UniProt P35408); assay: FLIPR Ca2+ signaling antagonist assay, EP4 receptor stable cell line; settings: chimeric Gqs, vs standard agonist PGE2
T5 construct: expressed in transfected cells
T5 sequence (P35408 whole entry): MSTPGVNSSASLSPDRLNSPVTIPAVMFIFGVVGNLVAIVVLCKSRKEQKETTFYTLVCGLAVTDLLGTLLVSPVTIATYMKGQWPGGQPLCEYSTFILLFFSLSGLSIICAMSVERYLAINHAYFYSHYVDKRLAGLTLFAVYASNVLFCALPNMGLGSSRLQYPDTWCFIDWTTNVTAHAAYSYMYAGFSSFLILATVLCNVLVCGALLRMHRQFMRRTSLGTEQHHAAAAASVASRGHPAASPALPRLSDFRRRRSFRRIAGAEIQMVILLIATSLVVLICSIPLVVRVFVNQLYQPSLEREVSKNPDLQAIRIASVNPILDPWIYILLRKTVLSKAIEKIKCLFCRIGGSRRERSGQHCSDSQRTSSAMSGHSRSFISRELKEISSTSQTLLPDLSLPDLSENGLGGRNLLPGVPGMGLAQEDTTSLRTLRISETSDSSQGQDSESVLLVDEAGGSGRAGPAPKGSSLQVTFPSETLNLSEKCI
Description: as §1, §2, §3, §4, §5

[6] = target: T6, human prostanoid IP receptor (Homo sapiens, UniProt P43119); assay: FLIPR Ca2+ signaling antagonist assay, IP receptor stable cell line; settings: HEK-293 EBNA stable cells, vs standard agonist Cicaprost
T6 construct: expressed in transfected cells
T6 sequence (P43119 whole entry): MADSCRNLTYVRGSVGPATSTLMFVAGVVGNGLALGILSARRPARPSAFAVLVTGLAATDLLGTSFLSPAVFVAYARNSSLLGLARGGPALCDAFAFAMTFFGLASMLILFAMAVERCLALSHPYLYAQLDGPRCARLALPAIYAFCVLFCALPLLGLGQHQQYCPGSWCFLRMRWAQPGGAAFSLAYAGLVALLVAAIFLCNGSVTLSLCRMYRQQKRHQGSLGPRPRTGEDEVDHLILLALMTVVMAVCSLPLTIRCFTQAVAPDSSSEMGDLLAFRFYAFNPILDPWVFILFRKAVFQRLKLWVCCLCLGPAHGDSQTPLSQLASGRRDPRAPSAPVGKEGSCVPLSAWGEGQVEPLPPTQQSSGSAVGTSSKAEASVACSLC
Description: as §1, §2, §3, §4, §5

[7] = target: T7, human prostanoid TP receptor (Homo sapiens, UniProt P21731); assay: FLIPR Ca2+ signaling antagonist assay, TP receptor stable cell line
T7 construct: expressed in transfected cells
T7 sequence (P21731 1-343): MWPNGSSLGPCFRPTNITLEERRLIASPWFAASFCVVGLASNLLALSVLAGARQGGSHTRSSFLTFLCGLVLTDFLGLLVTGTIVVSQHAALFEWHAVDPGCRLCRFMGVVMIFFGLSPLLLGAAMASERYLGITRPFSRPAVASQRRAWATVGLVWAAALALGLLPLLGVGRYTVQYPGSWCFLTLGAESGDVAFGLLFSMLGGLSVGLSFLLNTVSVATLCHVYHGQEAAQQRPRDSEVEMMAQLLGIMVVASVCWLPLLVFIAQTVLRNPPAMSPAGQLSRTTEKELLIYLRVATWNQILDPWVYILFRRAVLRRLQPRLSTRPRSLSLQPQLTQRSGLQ
Description: as §1, §2
as §3, with “These stable cell lines were validated using previously published antagonists at 10 μM against serial dilutions of standard agonists by FLIPR functional assays for Ca^2+ Signaling (as described below).” left out
as §5

[8] = target: T8, human prostanoid DP1 receptor (Homo sapiens, UniProt Q13258); assay: FLIPR Ca2+ signaling antagonist assay, DP1 receptor stable cell line
T8 construct: expressed in transfected cells
T8 sequence (Q13258 1-359): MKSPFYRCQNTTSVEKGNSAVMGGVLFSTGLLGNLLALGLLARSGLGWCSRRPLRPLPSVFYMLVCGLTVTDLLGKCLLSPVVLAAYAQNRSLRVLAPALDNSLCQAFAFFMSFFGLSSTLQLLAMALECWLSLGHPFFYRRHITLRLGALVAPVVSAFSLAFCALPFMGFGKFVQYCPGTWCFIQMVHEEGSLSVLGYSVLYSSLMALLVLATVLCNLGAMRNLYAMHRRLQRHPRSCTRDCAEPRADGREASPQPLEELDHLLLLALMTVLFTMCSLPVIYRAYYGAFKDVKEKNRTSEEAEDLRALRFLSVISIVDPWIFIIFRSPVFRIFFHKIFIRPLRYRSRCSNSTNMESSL
Description: as §1, §2
Briefly, human prostanoid DP1, EP2, and EP4 receptor cDNAs were co-transfected with chimeric Gqs cDNA containing a haemagglutanin (HA) epitope; human prostanoid EP3 receptors were co-transfected with chimeric Gqi-HA; human EP1, FP, IP, and TP receptor cDNAs were expressed with no exogenous G-proteins. […] Because Gqs and Gqi contained an HA epitope, G-protein expression was detected by Western blotting analysis using anti-mouse HA monoclonal antibody and horseradish peroxidase (HRP)-conjugated secondary antibody, while functional expression of prostanoid receptors was detected by FLIPR screening. […]
After 4.5 minutes, a 7-point serial dilution of the standard agonist for the corresponding receptor, in a 25 μl volume was injected at the final concentrations from 10^−11M to 10^−5M 10-fold serial dilution increments for cells expressing human recombinant DP1, EP1, EP2, EP3, EP4, FP, and IP receptors. […] Assay plates were read for 3.5 minutes using the FLIPR^TETRA. […]

[9] = read-out: EC50 (nM) on Prostanoid Receptor Functional Activity Measured by FLIPR
[10] = HEK-293 EBNA stable cells, read-out: EC50 (nM) on Prostanoid Receptor Functional Activity Measured by FLIPR, (FLIPR) Kb (nM): EP1
[11] = HEK-293 EBNA stable cells, read-out: EC50 (nM) on Prostanoid Receptor Functional Activity Measured by FLIPR, (FLIPR) Kb (nM): EP2
[12] = HEK-293 EBNA stable cells, read-out: EC50 (nM) on Prostanoid Receptor Functional Activity Measured by FLIPR, (FLIPR) Kb (nM): EP3
[13] = HEK-293 EBNA stable cells, read-out: EC50 (nM) on Prostanoid Receptor Functional Activity Measured by FLIPR, (FLIPR) Kb (nM): EP4
[14] = HEK-293 EBNA stable cells, vs standard agonist U-46619, read-out: EC50 (nM) on Prostanoid Receptor Functional Activity Measured by FLIPR, (FLIPR) Kb (nM): TP
[15] = EC50 (nM) on Prostanoid Receptor Functional Activity Measured by FLIPR

SMILES	Kb [1, 9]	Kb [2, 10]	Kb [3, 11]	Kb [4, 12]	Kb [5, 13]	Kb [6, 9]	Kb [7, 14] [nM]	Kb ([8]; HEK-293 EBNA stable cells, chimeric Gqs, vs standard agonist BW 245C, read-out: EC50 (nM) on Prostanoid Receptor Functional Activity Measured by FLIPR, (FLIPR) Kb (nM): DP) [nM]	Kb [1, 15] [nM]	Kb [8] [nM]	Kb ([2]; EC50 (nM) on Prostanoid Receptor Functional Activity Measured by FLIPR, (FLIPR) Kb (nM): EP1, HEK-293 EBNA stable cells) [nM]	Kb ([3]; EC50 (nM) on Prostanoid Receptor Functional Activity Measured by FLIPR, (FLIPR) Kb (nM): EP2, HEK-293 EBNA stable cells) [nM]	Kb ([4]; EC50 (nM) on Prostanoid Receptor Functional Activity Measured by FLIPR, (FLIPR) Kb (nM): EP3, HEK-293 EBNA stable cells) [nM]	Kb ([5]; EC50 (nM) on Prostanoid Receptor Functional Activity Measured by FLIPR, (FLIPR) Kb (nM): EP4, HEK-293 EBNA stable cells) [nM]	Kb [6, 15] [nM]	Kb [7] [nM]
O=C(CCc1ccc(F)cc1CN1CCC[C@H]1c1nc(C(=O)NCCCCC2CCCCC2)co1)NS(=O)(=O)C(F)(F)F [Example 12a]	350 nM and 270 nM	47 nM and 20 nM	6400 nM and 830 nM	82 nM and 47 nM	38 nM and 10 nM	550 nM and 860 nM	< 1									
O=C(CCc1cc2c(cc1CN1CCCC1c1nc(C(=O)NCCCCC3CCCCC3)co1)OCO2)NS(=O)(=O)C(F)(F)F (centres unmarked) [Example 12d]	360 nM	63 nM	3900 nM	150 nM	7 nM	1000 nM	0.3	3								
O=C(CCc1ccc(Cl)cc1CN1CCC[C@H]1c1nc(C(=O)NCCCCC2CCCCC2)co1)NS(=O)(=O)C(F)(F)F [Example 12b, (S)—N-(4-cyclohexylbutyl)-2-(1-(5-chloro-2-(3-oxo-3-(trifluoromethylsulfonamido)propyl)benzyl)pyrrolidin-2-yl)oxazole-4-carboxamide]	460 nM	70 nM	5500 nM	100 nM	37 nM	9500 nM										
CCCCCCCCNC(=O)c1coc(C2CCCN2Cc2cc(F)ccc2CCC(=O)NS(=O)(=O)C(F)(F)F)n1 (centres unmarked) [Example 12e, 2-{1-[5-fluoro-2-(3-oxo-3-{[(trifluoromethyl)sulfonyl]amino}propyl)benzyl]pyrrolidin-2-yl}-N-octyl-1,3-oxazole-4-carboxamide]									270	18	20	2500	110	19	290	> 1
